# Test results published in US20100022527A1, “BIPHENYL SUBSTITUTED SPIROTETRONIC ACIDS AND THEIR USE FOR THE TREATMENT OF RETROVIRAL DISEASES” (priority 2006, published 2010).
# Molecular target: T1, HIV-1 protease wild type protein (Human immunodeficiency virus type 1 group M subtype B, UniProt P04585)
# T1 construct: HIV-1 protease wild type protein; purchased AscoProt Biotech, Prague, Czech Republic
# Assay: Biochemical protease assay
# Procedure: For the determination of their in vitro activity on HIV proteases the test substances are dissolved in DMSO and serially diluted. In each case 0.5 μl of substance dilution, 20 μl of 0.2-1 nM HIV-1 protease wild type or mutant protein (e.g., multiresistant isolate “35513”: L10I, I15V, L19I, K20R, E35D, M36I, R41K, I54V, L63P, H69K, A71V, T74P, I84V, L89M, L90M, 193L, AscoProt Biotech, Prague, Czech Republic) in buffer 1 (50 mM sodium acetate pH 4.9, 0.02% BSA, 0.1 mM EDTA, 0.5 mM DTT) and 20 μl of 8 μM substrate (M1865 from Bachem, Bubendorf, Switzerland; Matayoshi et al., Science 1990, 247, 954-8) in buffer 1 are added successively to a 384 well microtiter plate (Greiner, Frickenhausen, Germany), incubated for 60-180 minutes at 32° C. and the fluorescence is measured (e.g., Tecan Safire, 340 nm extinction, 520 nm emission). IC50 values are determined by graphical plotting the substance concentration against the percentage inhibition.
row,SMILES,IC50
1,CCS(=O)(=O)c1ccc(-c2cc(C)c(C3=C(O)C4(CCCCC4)OC3=O)cc2Cl)cc1 [Example 42],≤ 100 nM
2,CCCS(=O)(=O)Nc1cccc(-c2cc(C)c(C3=C(O)C4(CCCCC4)OC3=O)cc2Cl)c1 [Example 177],≤ 100 nM
3,Cc1cc(-c2ccc(Cl)cc2)c(C)cc1C1=C(O)C2(CCC3CCCC3C2)OC1=O (stereo not shown) [Example 12],≤ 100 nM
4,Cc1cc(-c2cccc(S(C)(=O)=O)c2)c(Cl)cc1C1=C(O)C2(CCN(C(=O)Cc3ccc(S(=O)(=O)O)cc3)CC2)OC1=O [Example 143],≤ 100 nM
5,COC1CCC2(CC1)OC(=O)C(c1cc(Cl)c(-c3ccc(F)cc3)cc1C)=C2O (stereo not shown) [Example 54],≤ 100 nM
6,Cc1cc(-c2ccc(NC(=O)C(C)(C)C)cc2)c(Cl)cc1C1=C(O)C2(CCCCC2)OC1=O [Example 44],≤ 100 nM
7,CC(=O)N1CCC2(CC1)OC(=O)C(c1cc(Cl)c(-c3cccc(S(C)(=O)=O)c3)cc1C)=C2O [Example 158],≤ 100 nM
8,Cc1cc(-c2cccc(S(C)(=O)=O)c2)c(Cl)cc1C1=C(O)C2(CCCN(CC(=O)NCc3ccc(OC(F)(F)F)cc3)C2)OC1=O (stereo not shown) [Example 166],≤ 100 nM
9,Cc1cc(-c2cccc(NS(C)(=O)=O)c2)c(Cl)cc1C1=C(O)C2(CCCCCC2)OC1=O [Example 199],≤ 100 nM
10,CCOC(=O)N1CCC2(CC1)OC(=O)C(c1cc(Cl)c(-c3cccc(S(C)(=O)=O)c3)cc1C)=C2O [Example 153],≤ 100 nM
11,Cc1cc(-c2cccc(C)c2C)c(Cl)cc1C1=C(O)C2(CCCCC2)OC1=O [Example 33],≤ 100 nM
12,Cc1cc(-c2ccc(Cl)cc2)c(C)cc1C1=C(O)C2(CCC(C)C(C)C2)OC1=O (stereo not shown) [Example 9],≤ 100 nM
13,Cc1cc(-c2ccc3c(c2)OCO3)c(Cl)cc1C1=C(O)C2(CCCCC2)OC1=O [Example 24],≤ 100 nM
14,Cc1cc(-c2ccccc2)c(Cl)cc1C1=C(O)C2(CCCC2)OC1=O [Example 201],≤ 100 nM
15,Cc1cc(-c2cccc(NC(=O)CN(C)C)c2)c(Cl)cc1C1=C(O)[C@]2(CC[C@@H]3CCC[C@@H]3C2)OC1=O [Example 182],≤ 100 nM
16,COc1ccc(CCCC(=O)N2CCC3(CC2)OC(=O)C(c2cc(Cl)c(-c4cccc(S(C)(=O)=O)c4)cc2C)=C3O)cc1 [Example 141],≤ 100 nM
17,"CC(=O)Nc1cc(-c2cc(C)c(C3=C(O)C4(CCCCC4)OC3=O)cc2Cl)ccc1C [Example 184, N-[2′-Chloro-4′-(4-hydroxy-2-oxo-1-oxaspiro[4.5]dec-3-en-3-yl)-4,5′-dimethylbiphenyl-3-yl]acetamide]",≤ 100 nM
18,Cc1cc(-c2cccc(NS(=O)(=O)Cc3ccccc3)c2)c(Cl)cc1C1=C(O)C2(CCCCC2)OC1=O [Example 191],≤ 100 nM
19,Cc1cc(-c2cccc(NS(C)(=O)=O)c2)c(Cl)cc1C1=C(O)C2(CCN(C(=O)OCc3ccccc3)CC2)OC1=O [Example 91],≤ 100 nM
20,Cc1cc(-c2ccc(NS(C)(=O)=O)cc2)c(Cl)cc1C1=C(O)C2(CCC3CCCC3C2)OC1=O (stereo not shown) [Example 180],≤ 100 nM
21,Cc1cc(-c2cccc(S(C)(=O)=O)c2)c(Cl)cc1C1=C(O)C2(CCCN(CC(=O)NCCc3ccccc3)C2)OC1=O (stereo not shown) [Example 130],≤ 100 nM

row,SMILES,IC50
1,Cc1cc(-c2cccc(S(C)(=O)=O)c2)c(Cl)cc1C1=C(O)C2(CCN(C(=O)CCCS(N)(=O)=O)CC2)OC1=O [Example 140],≤ 100 nM
2,Cc1cc(-c2cccc(S(C)(=O)=O)c2)c(Cl)cc1C1=C(O)C2(CCCN(CC(=O)NCc3ccc(Cl)s3)C2)OC1=O (stereo not shown) [Example 203],≤ 100 nM
3,Cc1cc(-c2cccc(S(C)(=O)=O)c2)c(Cl)cc1C1=C(O)C2(CCCN(C(=O)CCCc3ccccc3)C2)OC1=O (stereo not shown) [Example 135],≤ 100 nM
4,Cc1cc(-c2cccc(S(C)(=O)=O)c2)c(Cl)cc1C1=C(O)C2(CCCN(CC(=O)NC(C)C)C2)OC1=O (stereo not shown) [Example 101],≤ 100 nM
5,Cc1cc(-c2cccc(S(C)(=O)=O)c2)c(Cl)cc1C1=C(O)C2(CCCN(C(=O)N3CCOCC3)C2)OC1=O (stereo not shown) [Example 106],≤ 100 nM
6,Cc1cc(-c2cccc(CO)c2)c(Cl)cc1C1=C(O)C2(CCCCC2)OC1=O [Example 26],≤ 100 nM
7,Cc1cc(-c2ccc(C(=O)NCC(=O)O)cc2)c(Cl)cc1C1=C(O)C2(CCCCC2)OC1=O [Example 52],≤ 100 nM
8,Cc1cc(-c2cccc(NC(=O)CCN)c2)c(Cl)cc1C1=C(O)[C@]2(CC[C@@H]3CCC[C@@H]3C2)OC1=O [Example 183],≤ 100 nM
9,Cc1cc(-c2ccc(Cl)cc2)ccc1C1=C(O)C2(CCCCC2)OC1=O [Example 61],≤ 100 nM
10,"Cc1cc(-c2cccc(S(C)(=O)=O)c2)c(Cl)cc1C1=C(O)C2(CCN(C(=O)OCc3ccccc3)CC2)OC1=O [Example 72, benzyl 3-[2-chloro-5-methyl-3′-(methylsulfonyl)biphenyl-4-yl]-4-hydroxy-2-oxo-1-oxa-8-azaspiro[4.5]dec-3-ene-8-carboxylate]",≤ 100 nM
11,Cc1cc(-c2cccc(S(C)(=O)=O)c2)c(Cl)cc1C1=C(O)C2(CCCN(CC(=O)NCc3ccccn3)C2)OC1=O (stereo not shown) [Example 163],≤ 100 nM
12,Cc1cc(-c2cccc(OC(F)(F)F)c2)c(Cl)cc1C1=C(O)C2(CCCCC2)OC1=O [Example 38],≤ 100 nM
13,Cc1cc(-c2cccc(NS(C)(=O)=O)c2)c(Cl)cc1C1=C(O)C2(CCCN(CC(=O)NCc3ccccc3)C2)OC1=O (stereo not shown) [Example 97],≤ 100 nM
14,Cc1cc(-c2cccc(S(C)(=O)=O)c2)c(Cl)cc1C1=C(O)C2(CCCN(CC(=O)NCc3ccccc3)C2)OC1=O (stereo not shown) [Example 128],≤ 100 nM
15,Cc1cc(-c2cccc(S(C)(=O)=O)c2)c(Cl)cc1C1=C(O)C2(CCN(C(=O)CCCc3ccccc3)CC2)OC1=O [Example 145],≤ 100 nM
16,Cc1cc(-c2cccc(N)c2)c(Cl)cc1C1=C(O)[C@]2(CC[C@@H]3CCC[C@@H]3C2)OC1=O [Example 175],≤ 100 nM
17,Cc1cc(-c2cccc(Cl)c2)c(Cl)cc1C1=C(O)C2(CCCCC2)OC1=O [Example 31],≤ 100 nM
18,Cc1cc(-c2cccc(NC(=O)CCCN(C)C)c2)c(Cl)cc1C1=C(O)C2(CCCCC2)OC1=O [Example 181],≤ 100 nM
19,Cc1cc(-c2ccc(C(=O)NC3CC3)cc2)c(Cl)cc1C1=C(O)C2(CCCCC2)OC1=O [Example 49],≤ 100 nM
20,Cc1cc(-c2ccc(NS(C)(=O)=O)cc2)c(Cl)cc1C1=C(O)C2(CCCCC2)OC1=O [Example 178],≤ 100 nM
21,Cc1cc(-c2cccc(S(C)(=O)=O)c2)c(Cl)cc1C1=C(O)C2(CCCN(C(=O)CCC(=O)c3ccccn3)C2)OC1=O (stereo not shown) [Example 108],≤ 100 nM

row,SMILES,IC50
1,C/C(=C\C(=O)N1CCCC2(C1)OC(=O)C(c1cc(Cl)c(-c3cccc(S(C)(=O)=O)c3)cc1C)=C2O)CO (stereo not shown) [Example 122],≤ 100 nM
2,Cc1cc(-c2cccc(S(C)(=O)=O)c2)c(Cl)cc1C1=C(O)C2(CCN(C(=O)N3CCCC3)CC2)OC1=O [Example 155],≤ 100 nM
3,Cc1cc(-c2ccccc2)ccc1C1=C(O)C2(CCCCC2)OC1=O [Example 59],≤ 100 nM
4,COc1cccc(-c2cc(C)c(C3=C(O)C4(CCCCC4)OC3=O)cc2Cl)c1 [Example 32],≤ 100 nM
5,CCOc1cc(-c2cccc(S(C)(=O)=O)c2)c(C)cc1C1=C(O)C2(CCCCC2)OC1=O [Example 93],≤ 100 nM
6,Cc1cc(-c2cccc(C(=O)NC3CC3)c2)c(Cl)cc1C1=C(O)C2(CCCCC2)OC1=O [Example 50],≤ 100 nM
7,Cc1cc(-c2cccc(S(C)(=O)=O)c2)c(Cl)cc1C1=C(O)C2(CCCN(CC(=O)NCc3ccco3)C2)OC1=O (stereo not shown) [Example 169],≤ 100 nM
8,COC1CCC2(CC1)OC(=O)C(c1cc(C)c(-c3cccc(C#N)c3)cc1C)=C2O (stereo not shown) [Example 56],≤ 100 nM
9,Cc1cc(-c2cccc(S(C)(=O)=O)c2)c(Cl)cc1C1=C(O)C2(CCCN(Cc3nc4ccccc4[nH]3)C2)OC1=O (stereo not shown) [Example 99],≤ 100 nM
10,Cc1cc(-c2cccc(C(N)=O)c2)c(Cl)cc1C1=C(O)C2(CCCCC2)OC1=O [Example 41],≤ 100 nM
11,Cc1cc(-c2ccc(NC(=O)OC(C)(C)C)cc2)c(Cl)cc1C1=C(O)C2(CCCCC2)OC1=O [Example 43],≤ 100 nM
12,Cc1ccc(CNC(=O)CN2CCCC3(C2)OC(=O)C(c2cc(Cl)c(-c4cccc(S(C)(=O)=O)c4)cc2C)=C3O)cc1 (stereo not shown) [Example 133],≤ 100 nM
13,"Cc1cc(-c2cccc(S(C)(=O)=O)c2)c(Cl)cc1C1=C(O)C2(CCCN(CC(=O)NCc3ccccc3)C2)OC1=O (single isomer, unassigned) [Example 164]",≤ 100 nM
14,"Cc1cc(-c2cccc(NS(C)(=O)=O)c2)c(Cl)cc1C1=C(O)C2(CCCCC2)OC1=O [Example 176, N-[2′-Chloro-4′-(4-hydroxy-2-oxo-1-oxaspiro[4.5]dec-3-en-3-yl)-5′-methylbiphenyl-3-yl]methanesulfonamide]",≤ 100 nM
15,Cc1cc(-c2cccc(S(C)(=O)=O)c2)c(Cl)cc1C1=C(O)C2(CCCN(C(=O)/C=C\c3cnn(C)c3)C2)OC1=O (stereo not shown) [Example 121],≤ 100 nM
16,Cc1cc(-c2cccc(S(C)(=O)=O)c2)c(Cl)cc1C1=C(O)C2(CCN(C(=O)CCc3ccc(S(C)(=O)=O)cc3)CC2)OC1=O [Example 109],≤ 100 nM
17,Cc1cc(-c2ccc(Cl)cc2)c(C)cc1C1=C(O)C2(CCC(=O)CC2)OC1=O [Example 11],≤ 100 nM
18,Cc1cc(-c2cccc(S(C)(=O)=O)c2)c(Cl)cc1C1=C(O)C2(CCN(C(=O)CCc3cccnc3)CC2)OC1=O [Example 147],≤ 100 nM
19,Cc1cc(-c2cc(NS(C)(=O)=O)ccc2F)c(Cl)cc1C1=C(O)C2(CCCCC2)OC1=O [Example 92],≤ 100 nM
